This passage reports TGI results from PubChem BioAssay (NCI).

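Compound exposure: 48 hours, 5 concentrations, 96-well plates. TGI marks complete inhibition of growth.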 Some results are limits rather than exact numbers.

Experiment in all cases: NCI anticancer screen, dose series, 48 h
The test system of experiment [1] is HOP-62 NSCLC.
Experiment [2] concerns DU-145 prostate.
For experiment [3], the system named is HCT-116 colon.
For experiment [4], the system named is HT29 colon.
Experiment [5] deals with U251 CNS.
The subject of experiment [6] is A549 NSCLC.
The test system of experiment [7] is TK-10 renal.
Experiment [8] concerns MDA-MB-435.
Experiment [9] deals with A498 renal.
Experiment [10] relates to UO-31 renal.
Experiment [11] concerns LOX IMVI melanoma.
The subject of experiment [12] is MDA-N.
Experiment [13] relates to SR leukemia.
Experiment [14] relates to SF-295 CNS.
Experiment [15] concerns CAKI-1 renal.
For experiment [16], the system named is SW-620 colon.
In experiment [17] the test system is SN12C renal.
Experiment [18] deals with NCI-H226 lung.
In experiment [19] the test system is PC-3 prostate.
In experiment [20] the test system is UACC-62 melanoma.

Take `COc1cc(O)c2c(=O)c3ccccc3n(C)c2c1`: the TGI in experiment [1] is 79 µM; in experiment [2] it was more than 100 µM; in experiment [3] it was more than 100 µM; in experiment [4], more than 100 µM; in [5], more than 100 µM; in experiment [6] it was more than 100 µM. The TGI in experiment [7], in experiment [8], in experiment [9], in experiment [10], in [11] and in experiment [12] was more than 100 µM each time. Besides, the TGI in experiment [13], in experiment [14], in [15], in [16], in experiment [17] and in experiment [18] was more than 100 µM in each case. In addition, the TGI in experiment [19] and in [20] was more than 100 µM throughout.
In the case of `Cn1c(=O)c2[nH]c(/N=N\n3ccc4ccccc43)nc2n(C)c1=O`, the TGI in [1], in experiment [2], in experiment [3], in experiment [4], in [5] and in experiment [6] was more than 100 µM in each case. The TGI in [7], in [8], in [9], in experiment [10], in experiment [11] and in [12] was more than 100 µM in each case. The TGI in [13], in experiment [14], in experiment [15], in experiment [16], in [17] and in [18] was more than 100 µM each time. The TGI in experiment [19] and in experiment [20] was more than 100 µM in each case.
Regarding `O=C(O)c1cnccc1-c1cc(=O)[nH]n1-c1ccccc1`, the TGI is more than 100 µM in [1]; more than 100 µM in experiment [2]; more than 100 µM in experiment [3]; more than 67.1 µM in [4]; more than 100 µM in experiment [5]; more than 100 µM in [6]. Also, the TGI in [7], in [8], in [9], in [10], in [11] and in experiment [12] was more than 100 µM in each case. Moreover, the TGI is more than 100 µM in [13]; more than 63.8 µM in experiment [14]; more than 100 µM in experiment [15]; more than 100 µM in experiment [16]; more than 100 µM in experiment [17]; more than 100 µM in experiment [18]. Further, the TGI in experiment [19] and in experiment [20] was more than 100 µM each time.
For the molecule `COc1cccc2c3cccc(OC)c3c3[nH]cnc3c12`, the TGI was determined as 35.2 µM in experiment [1]; 2.78 µM in experiment [2]; 3.1 µM in experiment [3]; 3 µM in experiment [4]; 3.03 µM in experiment [5]; 3.08 µM in [6]. Besides, the TGI in experiment [7] turned out to be 3.91 µM; in experiment [8] it was 4.1 µM; in experiment [9], 33.4 µM; in [10] it was 3.02 µM; in experiment [11], 3.52 µM; in experiment [12], 3.34 µM. Moreover, the TGI amounted to 5.15 µM in experiment [13]; 9.51 µM in experiment [14]; 37.9 µM in experiment [15]; 3.19 µM in [16]; 22.3 µM in experiment [17]; 32.7 µM in [18]. Further, the values for the TGI in [19] and in experiment [20] were 4.6 µM and 30.3 µM, respectively.
Turning to `C/C(Sc1ccccc1)=C1/CCCN(Cc2ccccc2)C1`, the TGI is 61.4 µM in experiment [1]; more than 100 µM in [2]; more than 100 µM in experiment [4]; 57.8 µM in experiment [5]; more than 100 µM in experiment [6]; 60.4 µM in [7]. The TGI is 87.7 µM in experiment [8]; more than 100 µM in experiment [9]; 40.9 µM in [10]; 31.8 µM in experiment [11]; more than 100 µM in experiment [12]; 35.7 µM in experiment [13]. The TGI in [14] was 50.9 µM; in [15], more than 100 µM; in experiment [16] it was more than 100 µM; in experiment [18], 41.6 µM; in [19], 59.9 µM; in [20], 47.6 µM.
For the molecule `O=c1oc2ccccc2c(-c2ccc(O)cc2)c1Oc1ccc(Cl)cc1`, the TGI is more than 100 µM in [2]; 35.6 µM in [3]; 64.1 µM in experiment [4]; 61.4 µM in experiment [5]; 47.3 µM in experiment [6]; 62.1 µM in [7]. The TGI in experiment [8] was more than 100 µM; in experiment [9], 77.2 µM; in experiment [10], 51.9 µM; in experiment [11], 62 µM; in experiment [12], 67.6 µM; in [13], 51.9 µM. For the same molecule, the TGI was 60.6 µM in experiment [14]; more than 100 µM in [15]; more than 100 µM in experiment [16]; 79.7 µM in experiment [17]; 86.3 µM in [18]; 97.1 µM in experiment [19]. In experiment [20], this molecule showed a TGI of 63.3 µM.
With `Cn1c2c(c3c(=O)[nH]ncc31)CCc1ccccc1-2`, the TGI in experiment [1] is more than 100 µM; in experiment [2], more than 100 µM; in experiment [3] it was 64.2 µM; in [4], more than 100 µM; in [5] it was more than 100 µM; in experiment [6], more than 100 µM. Also, the TGI was 45.3 µM in experiment [7]; more than 100 µM in experiment [8]; 45.7 µM in [9]; 59.1 µM in [10]; 35 µM in experiment [11]; 91 µM in experiment [12]. The TGI was 55.2 µM in experiment [13]; more than 100 µM in [14]; more than 100 µM in experiment [15]; more than 100 µM in experiment [16]; more than 100 µM in experiment [17]; 94.4 µM in experiment [18]. This molecule also showed a TGI in experiment [19] of more than 100 µM.
